Consider two molecules from patent publication US9820943B2, “Micronized amoxicillin” (DSM SINOCHEM PHARMACEUTICALS NETHERLANDS B.V., priority 2013, dated 2017).

The structures appear in SMILES notation.

This data set can be described thus: Powder dissolution, visual determination of clarity in drinking water. The settings on record: 3.0 g in 1000 mL drinking water, stirred 2 min at 300±10 rpm, 30±1° C.; trihydrate. The class given is physicochemical. Here is the method: Non-micronized amoxicillin trihydrate (3.0 g) was added to a 2 L beaker and drinking water (1000 mL) was added. The mixture was stirred for 2 min at 300±10 rpm at 30±1° C. After two minutes the stirrer was stopped. The same procedure was applied to a sample of micronized amoxicillin trihydrate. Both mixtures were visually observed.

In the case of `CC1(C)S[C@@H]2[C@H](NC(=O)[C@H](N)c3ccc(O)cc3)C(=O)N2[C@H]1C(=O)O` [Non-micronized amoxicillin trihydrate, amoxicillin trihydrate], the “Visual appearance of the mixture (clarity)” value is given as “cloudy”.

In the case of `CC1(C)S[C@@H]2[C@H](NC(=O)[C@H](N)c3ccc(O)cc3)C(=O)N2[C@H]1C(=O)O` [micronized amoxicillin trihydrate, amoxicillin trihydrate], the “Visual appearance of the mixture (clarity)” value is on record as “clear”.
